Experimental findings from PMC9839384 (Slas Discovery, 2023) are described below.

In data set [1] the target is SARS-CoV-2 3CLpro (Severe acute respiratory syndrome coronavirus 2, UniProt P0DTD1). It is filed as cell-based.
Data set [2] concerns SARS-CoV-2 3CLpro-HA, RLuc, FLuc in HEK293T cells. The format is cell-based. The note with it: actin as control.
The target of data set [3] is 3CLpro (Severe acute respiratory syndrome coronavirus 2, UniProt P0DTD1). The data set can be described thus: 3CLpro biochemical inhibition assay. Details: species or system SARS-CoV-2.
For data set [4], the system named is 293T cells. Conditions: initial screening.

In the case of `CCN1CCN(Cc2ccc(NC(=O)Nc3ccc(Oc4cc(NC)ncn4)cc3)cc2C(F)(F)F)CC1` [AST-487], the “inhibition against viral proteases, in words” value (“inhibition” for short) in data set [1] was “some selective SARS 3CLpro inhibition but only at the highest concentration tested”.

In the case of `CC(C)C[C@H](NC(=O)[C@H](CCc1ccccc1)NC(=O)CN1CCOCC1)C(=O)N[C@@H](Cc1ccccc1)C(=O)N[C@@H](CC(C)C)C(=O)[C@@]1(C)CO1` [Carfilzomib], in data set [1], the “inhibition” value is given as “inhibited all the proteases tested”. Besides, the “protein expression by western blot” value in data set [2] is “decrease in all exogenously expressed constructs”. With `O=C(/C=C/c1ccc(Cl)c(Cl)c1)Nc1ccccc1C(=O)O` [SR-32229], the “potency in the enzymatic assay, in words” value in data set [3] is “low-µM affinity”. In data set [3] (Supplementary Fig. 2, panel D), the Emax is reported as ~100 % of tranilast. With `COc1ccc(/C=C/C(=O)Nc2ccccc2C(=O)O)cc1OC` [Tranilast, (E)-2-(3-(3,4-dimethoxyphenyl)acrylamido)benzoic acid], the “cytotoxicity, in words” value in data set [4] is on record as “nontoxic”. Besides, the “inhibition” value in data set [1] was “SARS 3CLpro specific inhibition”.
